In patent US20190375708A1 (VenatoRx Pharmaceuticals, Inc., priority 2018, published 2019):

Legend:
[1] = system: HBV replication in HepAD38 cells; experiment: Anti-HBV replication assay in HepAD38 cells (QPCR of extracellular HBV DNA); format: cell-based, HBV (genotype D, serotype ayw); conditions: Hepatitis B virus, 168 h, 7 days incubation, extracellular HBV DNA by QPCR, read-out: Anti-HBV EC50
Procedure, shortened: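 Compounds (1 log10 serial dilutions, […]) were left 7 days on tetracycline-free HepAD38 cultures, a HepG2 line with tet-controlled HBV genotype D. EC50 came from 4-parameter regression of percent inhibition versus vehicle, using supernatant HBV DNA copies/mL measured by QPCR.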

[2] = In vitro cytotoxicity assay (MTT cell viability) in HepG2 cells; format: cell-based, human; conditions: human
Procedure, shortened: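 Parental HepG2 cells in EMEM + 10% FBS were exposed to compounds (8 half-log dilutions, 30 μM to 1.0 nM) for 7 days at 37 °C, 5% CO2. MTT was then added for 3-4 h, formazan dissolved in DMSO and absorbance read at 492 nm; CC50 came from 4-parameter fits against vehicle controls.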

Q: What does the source list for Cc1cc(NC(=O)c2c(C)c(C(=O)C(=O)NC3(CO)CC(F)(F)C3)n(C)c2Cl)ccc1F [Example 387, 2-chloro-5-(2-((3,3-difluoro-1-(hydroxymethyl)cyclobutyl)amino)-2-oxoacetyl)-N-(4-fluoro-3-methylphenyl)-1,4-dimethyl-1H-pyrrole-3-carboxamide]?
A: EC50 [1]: > 1000 nM; CC50 at 7 days [2]: 5000 to 30000 nM

Q: What does the source list for Cc1cc(NC(=O)c2c(C)c(C(=O)C(=O)NCC(C)(C)O)n(C)c2Cl)ccc1F [Example 388, 2-chloro-N-(4-fluoro-3-methylphenyl)-5-(2-((2-hydroxy-2-methylpropyl)amino)-2-oxoacetyl)-1,4-dimethyl-1H-pyrrole-3-carboxamide]?
A: EC50 [1]: > 1000 nM; CC50 at 7 days [2]: 5000 to 30000 nM

Q: With Cc1cc(NC(=O)c2c(C)c(C(=O)C(=O)N[C@@H]3CCC[C@@H]3O)n(C)c2Cl)ccc1F [Example 390, 2-chloro-N-(4-fluoro-3-methylphenyl)-5-(2-(((1R,2S)-2-hydroxycyclopentyl)amino)-2-oxacetyl)-1,4-dimethyl-1H-pyrrole-3-carboxamide] as the molecule, how does the EC50 [1] read?
A: The EC50 was 50 to 499 nM.

Q: What about the CC50 at 7 days [2] of the same molecule?
A: Its CC50 at 7 days is over 30000 nM.

Q: For Cc1cc(NC(=O)c2c(C)c(C(=O)C(=O)NC(C)(C)CO)n(C)c2Cl)ccc1F [Example 391, 2-chloro-N-(44-fluoro-3-methylphenyl)-5-(2-((1-hydroxy-2-methylpropan-2-yl)amino)-2-oxoacetyl)-1 4-dimethyl-1H-pyrrole-3-carboxamide], which EC50 [1] is on record?
A: Its EC50 is over 1000 nM.

Q: What about the CC50 at 7 days [2] of the same molecule?
A: The CC50 at 7 days was over 30000 nM.

Q: Which results are given for CC(C)(C)NC(=O)C(=O)c1cc(C(=O)Nc2ccc(F)c(C#N)c2)c2n1CCCC2 [Example 392, 3-(2-(tert-butylamino)-2-oxoacetyl)-N-(3-cyano-4-fluorophenyl)-5,6,7,8-tetrahydroindolizine-1-carboxamide]?
A: EC50 [1]: > 1000 nM; CC50 at 7 days [2]: 5000 to 30000 nM

Q: For Cc1cc(NC(=O)c2cc(C(=O)C(=O)NC(C)(C)C)n3c2CCCC3)ccc1F [Example 393, 3-(2-(tert-butylamino)-2-oxoacetyl)-N-(4-fluoro-3-methylphenyl)-5,6,7,8-tetrahydroindolizine-1-carboxamide], which EC50 [1] is on record?
A: Its EC50 is 50 to 499 nM.

Q: What about the CC50 at 7 days [2] of the same molecule?
A: Its CC50 at 7 days is over 30000 nM.

Q: With Cc1noc(C(NC(=O)C(=O)c2cc(C(=O)Nc3ccc(F)c(C)c3)c3n2CCCC3)C(C)C)n1 (stereo not drawn) [Example 394, N-(4-fluoro-3-methylphenyl)-3-(2-((2-methyl-1-(3-methyl-1,2,4-oxadiazol-5-yl)propyl)amino)-2-oxoacetyl)-5,6,7,8-tetrahydroindolizine-1-carboxamide] as the molecule, how does the EC50 [1] read?
A: The EC50 was 50 to 499 nM.

Q: And the CC50 at 7 days [2]?
A: Its CC50 at 7 days is over 30000 nM.

Q: With CC(C)(C)NC(=O)C(=O)c1cc(C(=O)Nc2cc(F)cc(Cl)c2)c2n1CCCC2 [Example 395, 3-(2-(tert-butylamino)-2-oxoacetyl)-N-(3-chloro-5-fluorophenyl)-5,6,7,8-tetrahydroindolizine-1-carboxamide] as the molecule, how does the EC50 [1] read?
A: The EC50 was over 1000 nM.

Q: What about the CC50 at 7 days [2] of the same molecule?
A: Its CC50 at 7 days is 500 to 4990 nM.

Q: With CC(C)(C)NC(=O)C(=O)c1cc(C(=O)Nc2cc(F)c(F)c(F)c2)c2n1CCCC2 [Example 396, 3-(2-(tert-butylamino)-2-oxoacetyl)-N-(3,4,5-trifluorophenyl)-5,6,7,8-tetrahydroindolizine-1-carboxamide] as the molecule, how does the EC50 [1] read?
A: The EC50 was 50 to 499 nM.

Q: What about the CC50 at 7 days [2] of the same molecule?
A: Its CC50 at 7 days is 5000 to 30000 nM.

Q: What does the source list for Cc1cc(NC(=O)c2cc(C(=O)C(=O)NC(C)(C)C)n3c2CCCC3)cc(F)c1F [Example 397, 3-(2-(tert-butylamino)-2-oxoacetyl)-N-(3,4-difluoro-5-metthylphenyl)-5,6,7,8-tetrahydroindolizine-1-carboxamide]?
A: EC50 [1]: 50 to 499 nM; CC50 at 7 days [2]: 5000 to 30000 nM

Q: With CC(C)(C)NC(=O)C(=O)c1cc(C(=O)Nc2ccc(F)c(F)c2)c2n1CCCC2 [Example 398, 3-(2-(tert-butylamino)-2-oxoacetyl)-N-(3,4-difluorophenyl)-5,6,7,8-tetrahydroindolizine-1-carboxamide] as the molecule, how does the EC50 [1] read?
A: Its EC50 is 50 to 499 nM.

Q: What about the CC50 at 7 days [2] of the same molecule?
A: Its CC50 at 7 days is over 30000 nM.

Q: Which EC50 [1] does the source give for CC(C)(C)NC(=O)C(=O)c1cc(C(=O)Nc2ccc(F)c(Cl)c2)c2n1CCCC2 [Example 399, 3-(2-(tert-butylamino)-2-oxoacetyl)-N-(3-chloro-4-fluorophenyl)-5,6,7,8-tetrahydroindolizine-1-carboxamide] here?
A: The EC50 was 50 to 499 nM.

Q: And the CC50 at 7 days [2]?
A: The CC50 at 7 days was over 30000 nM.
